Calls of active or inactive are those of the source.
Assays:
[1] = target: T1, Sentrin-specific protease 7 (Homo sapiens, UniProt Q9BQF6); type: functional;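 also: Luminescence-based dose-response confirmation of ultra-high-throughput screening hits, measuring inhibition of SENP7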
T1 sequence (Q9BQF6 whole entry): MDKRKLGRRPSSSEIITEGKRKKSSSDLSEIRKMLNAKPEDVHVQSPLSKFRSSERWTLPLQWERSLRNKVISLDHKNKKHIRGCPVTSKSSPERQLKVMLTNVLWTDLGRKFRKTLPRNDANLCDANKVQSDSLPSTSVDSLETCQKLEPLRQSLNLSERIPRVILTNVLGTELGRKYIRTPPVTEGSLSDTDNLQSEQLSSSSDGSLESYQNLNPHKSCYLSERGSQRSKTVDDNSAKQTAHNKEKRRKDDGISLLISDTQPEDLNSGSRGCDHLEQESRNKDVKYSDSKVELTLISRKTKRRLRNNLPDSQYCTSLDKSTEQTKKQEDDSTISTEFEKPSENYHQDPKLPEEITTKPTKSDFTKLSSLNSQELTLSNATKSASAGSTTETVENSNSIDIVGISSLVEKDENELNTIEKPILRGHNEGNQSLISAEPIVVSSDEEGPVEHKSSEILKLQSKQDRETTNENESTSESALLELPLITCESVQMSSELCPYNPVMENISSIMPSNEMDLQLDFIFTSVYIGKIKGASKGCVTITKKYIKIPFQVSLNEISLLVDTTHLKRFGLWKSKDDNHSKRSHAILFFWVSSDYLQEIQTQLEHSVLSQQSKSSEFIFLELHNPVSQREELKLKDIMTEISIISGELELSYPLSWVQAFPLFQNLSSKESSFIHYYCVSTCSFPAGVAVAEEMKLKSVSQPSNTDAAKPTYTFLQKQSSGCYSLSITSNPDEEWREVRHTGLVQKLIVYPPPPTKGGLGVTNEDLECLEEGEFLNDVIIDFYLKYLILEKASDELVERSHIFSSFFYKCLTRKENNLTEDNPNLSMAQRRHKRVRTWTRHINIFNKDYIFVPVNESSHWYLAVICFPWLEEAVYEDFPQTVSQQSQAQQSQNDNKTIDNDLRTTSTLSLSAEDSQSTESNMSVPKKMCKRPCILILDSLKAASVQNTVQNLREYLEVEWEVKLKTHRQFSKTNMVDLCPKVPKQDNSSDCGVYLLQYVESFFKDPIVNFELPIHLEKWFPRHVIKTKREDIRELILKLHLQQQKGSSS

[2] = Counterscreen for AddAB inhibitors: absorbance-based bacterial cell-based high throughput dose response assay for inhibitors of bacterial viability. [Related pubchem assays (depositor defined):AID435030, AID449728, AID449731, AID488942, AID488955, AID488956]; type: functional
BJ = assay: cells; type: functional, cell-based; conditions: Homo sapiens
cells = type: functional, cell-based
Hexokinase-1 = Hexokinase-1 (Homo sapiens, UniProt P19367); assay: HK1 enzyme activation by HKDC1 hits – biochemical, selectivity assay for HKDC1 activator project, dose response (AID 504762); type: functional
HEK293 = assay: HEK293T cell viability loss, resazurin readout – resazurin fluorescence, cytotoxicity control for NF-kB activator project, SAR follow-up (AID 493251); type: functional, cell-based; conditions: Homo sapiens
INS1 = assay: INS-1E survival protection against cytokine death – cell-based, luminescence, retest, dose response (AID 449756); type: functional; conditions: Rattus norvegicus;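 also: cell death triggered by IL-1 beta plus TNF-alpha plus IFN-gamma mixture; protective hits raise ATP signal compared with cytokine alone wells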

Sequence of Hexokinase-1 (P19367 whole entry): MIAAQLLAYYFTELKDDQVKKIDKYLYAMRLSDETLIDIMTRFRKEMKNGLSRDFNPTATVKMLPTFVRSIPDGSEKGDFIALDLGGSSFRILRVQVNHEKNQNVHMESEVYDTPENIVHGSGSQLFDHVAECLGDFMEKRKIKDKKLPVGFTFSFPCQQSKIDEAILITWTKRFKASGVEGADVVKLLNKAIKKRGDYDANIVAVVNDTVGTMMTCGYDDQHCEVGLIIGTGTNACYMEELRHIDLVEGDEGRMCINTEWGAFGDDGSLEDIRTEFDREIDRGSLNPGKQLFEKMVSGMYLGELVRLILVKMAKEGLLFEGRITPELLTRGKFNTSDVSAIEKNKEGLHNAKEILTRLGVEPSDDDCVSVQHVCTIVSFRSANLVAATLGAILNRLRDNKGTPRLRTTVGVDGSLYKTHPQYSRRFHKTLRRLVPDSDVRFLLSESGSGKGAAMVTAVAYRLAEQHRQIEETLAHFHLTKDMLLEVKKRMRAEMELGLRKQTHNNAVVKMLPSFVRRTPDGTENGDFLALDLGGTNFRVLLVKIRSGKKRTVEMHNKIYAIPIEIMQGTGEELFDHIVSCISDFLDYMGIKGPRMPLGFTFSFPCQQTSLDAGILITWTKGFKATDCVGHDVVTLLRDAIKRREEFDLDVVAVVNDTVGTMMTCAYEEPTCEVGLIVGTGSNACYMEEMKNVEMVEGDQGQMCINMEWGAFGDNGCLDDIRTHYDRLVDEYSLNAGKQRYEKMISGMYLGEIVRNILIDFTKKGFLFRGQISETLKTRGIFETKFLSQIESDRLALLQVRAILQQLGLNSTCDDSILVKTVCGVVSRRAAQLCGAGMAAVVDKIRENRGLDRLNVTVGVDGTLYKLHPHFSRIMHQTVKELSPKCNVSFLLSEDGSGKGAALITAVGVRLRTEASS

Row | Structure (SMILES) | IC50 [1] | IC50 [2] | EC50 (BJ) | EC50 (cells) | EC50 (Hexokinase-1) | IC50 (HEK293) | AC50 (INS1)
1 | CCOc1cccc(/C=N/NC(=S)Nc2ccccc2[N+](=O)[O-])c1O | 2.65 µM (active) | – | – | – | – | – | –
2 | CCCCC(=O)NC(c1ccc(N(CC)CC)cc1)c1ccc2cccnc2c1O (configuration not stated) | – | > 119 µM (inactive) | 2.41 µM (active) | > 350 µM (not active) | > 80 µM (inactive) | 35 µM (inactive) | 380 nM (active)
